According to patent publication US20110287948A1, “MEASUREMENT OF MATERIAL PROPERTIES AND RELATED METHODS AND COMPOSITIONS BASED ON CYTOADHERENCE” (Massachusetts Institute of Technology, priority 2010, published 2011):
“Also recorded” adds a separate entry of the source.

Assays:
[1] = tested on: P. falciparum-infected RBCs (iRBCs) and co-cultured uninfected RBCs (uRBCs); experiment: Microfluidic deformability cytometer: RBC mobility after artesunate drug treatment; format: cell-based, human; details: for separation resolution between iRBCs and uRBCs after drug treatment: after artesunate treatment vs untreated
Text: The device used in this example comprises a series of equally spaced triangular pillar arrays with pore sizes ranging from 2.5 to 4 um (FIG. 55A illustrates the case of 3 um pore size). Compared to the diameter of an average RBC (˜7.5 um), the smaller pore sizes are designed to impose similar mechanical constraints on the cells as if they are passing through blood capillaries and splenic meshwork. Driven by constant pressure gradient in the sub-Pascal-per-micrometer range, RBCs are able to deform substantially at each constriction and traverse along the channel. The dynamic deformability of RBCs is then characterized by their mobility: the ability to deform repeatedly in order to pass through multiple constrictions in series.
FIG. 55A depicts an experimental schematic of the microfluidic system. A heating chamber (Olympus) was mounted to the inverted microscope stage. Four heaters for the inner water bath, microscope stage, chamber top, and lens were designed to accurately control the ambient temperature inside the chamber. The PDMS-glass bonded device consists of the inlet and outlet reservoirs and main channels with triangular pillar arrays. It was placed inside the heating chamber with only the inlet reservoir connecting to an external syringe via a 20 cm-tubing. The reservoirs were 500×500 μm^2 squares with 20 μm-interspacing cylindrical pillar arrays; these pillar arrays could pre-filter white blood cells from whole blood, allowing only RBCs to pass through the main channels. Each of the parallel channels was 10 pillars wide and 200 pillars long. Along the flow direction, the inter-pillar spacing was 10 μm. This spacing allows deformed cells to recover and ready for subsequent deformations. Perpendicular to the flow direction, the pore size varied from 2.5 to 4 μm for different channels. Cells experience different levels of deformation when passing through these pores.
FIG. 55B presents microscopic screenshots illustrating both iRBCs and co-cultured uRBCs moving in the microchannel at different temperature conditions. The uninfected cells appear as dark shadows indicated by blue arrows, and the infected cells with thiazole orange (TO) staining appear as bright dots indicated by white arrows. The mobility of individual cells can then be derived by recording the time period for each cell passing through 10 constrictions in series (i.e. equivalent to 200 μm distance travelled). In this example, cell mobility is used to characterize the dynamic deformability of individual RBCs.
The deformability of both iRBCs and uRBCs were measured at 2, 4 and 6 hours after artesunate drug treatment (FIG. 60). A synchronized culture of rings with ˜15% parasitemia was resuspended at 0.1% hematocrit in malaria culture medium containing 0.01, 0.05 or 0.1 μg/ml of artesunate.
Layout program CleWin3.0 was used to design the microfluidic device, which consists of a 500×500 μm^2 inlet reservoir, a 500×500 μm^2 outlet reservoir, and parallel capillary channels with triangular pillar arrays (FIG. 55A). Three different pore-size of 2.5, 3.0 and 4.0 μm were designed for the capillary channels to test optimum deformation condition for the experiment. A silicon mold of the device was made using standard silicon processing techniques. The photolithography step was done using a 5× reduction step-and-repeat projection stepper (Nikon NSR2005i9, Nikon Prevision) and reactive-ion etching (RIE) techniques were used to give the mold a final depth of 4.2 μm. Final device was then casted from the silicon mold using polydimethylsiloxane (PDMS) and was sealed by a glass slide using oxygen plasma.
P. falciparum 3D7A parasites (from Malaria Research and Reference Reagent Source, American Type Culture Collection) were cultured in leukocyte-free human RBCs (Research Blood Components, Brighton Mass.) in RPMI 1640 complete medium as described (Trager and Jensen J. parasitol. 2005). […]

RBCs = experiment: Deformability cytometer: velocity of glutaraldehyde-treated RBCs through constrictions; format: cell-based, human
Text: The device design includes periodically spaced, triangle-shaped pillars and the gaps between these pillars result in well-controlled constrictions for RBCs to pass. The height of the device was set to 4.2 μm. RBCs were forced to assume a flat orientation before entering each constriction. This height, in addition to filters at the reservoirs, prevented white blood cells from entering the device, and permitted diluted whole blood to be used directly.
A mold of the device was made on a silicon wafer using photolithography and reactive-ion etching techniques. A 5× reduction step-and-repeat projection stepper (Nikon NSR2005i9, Nikon Precision) was used for patterning. The spacing between pillars was 3 μm, and the depth of the device was 4.2 μm. The device was made using standard PDMS casting protocols and bonded to a glass slide.
In experiments involving blood, 1 μl of whole blood (−50% hematocrit) was diluted in 100 μl of the PBS-pluronic-BSA solution for all of the experiments. In experiments involving parasites that express GFP, no further treatment was performed. In experiments involving healthy RBCs, 1 μl of whole blood (Research Blood Components, Brighton, Mass.), 1 μl of 50 μg/ml of Cell Tracker Orange (Invitrogen, Carlsbad, Calif.), and 98 μl of PBS were mixed with the indicated concentration of glutaraldehyde and allowed to sit for 30 minutes. The sample was then washed 3 times with the PBS-Pluronic-BSA solution. In experiments involving reticulocytes, 1 μl of whole blood, 89 μl of the PBS-Pluronic-BSA solution, and 10 μl of 1×10^−6M thiazole orange were mixed and allowed to sit for 20 minutes before starting experiments. Videos were obtained in which reticulocytes appear as uniformly fluorescent cells under the GFP filter set, while mature RBCs appear as shadows.
The PBS-Pluronic-BSA solution was pumped through the device for 30 minutes to coat the device walls with Pluronic and BSA. The RBC-PBS-Pluronic-BSA suspension was then injected into the device. Differences in pressure between the two reservoirs were generated hydrostatically by a difference in water column height. […]

| SMILES | mobility decrease at earlier time points ([1]; 2 and 4 hours after artesunate treatment) | mobility decrease ([1]; 6 hours after artesunate treatment, 0.01, 0.05 or 0.1 μg/ml, iRBCs and uRBCs) | dose dependence of mobility changes ([1]; after 4 hour drug treatment, dosage range 0.01 to 0.1 μg/ml) | separation resolution between iRBCs and uRBCs after drug treatment [1] | separation resolution between iRBCs and uRBCs after drug treatment ([1]; listed as Artesunate) | effect on RBC deformability (stiffening) ([1]; iRBCs and uRBCs after artesunate treatment) | passage of RBCs into the channel (RBCs; glutaraldehyde concentrations greater than 0.003%) | RBCs that passed through the channels (RBCs; glutaraldehyde less than 0.002%, treatment for 30 minutes) | RBC stiffness / velocity with increasing concentration (RBCs; increasing glutaraldehyde concentration, 30 minutes, approx. 0.61 Pa/μm) |
| --- | --- | --- | --- | --- | --- | --- | --- | --- | --- |
| C[C@H]1[C@H](OC(=O)CCC(=O)O)O[C@@H]2O[C@@]3(C)CC[C@H]4[C@H](C)CC[C@@H]1[C@@]24OO3 [artesunate] | smaller and less pronounced mobility decrease | 30%-50 | no statistically significant dose dependence | almost doubled | doubled | stiffening effect on both iRBCs and uRBCs; also recorded: the drop in iRBC deformability is more precipitous than in uRBC |  |  |  |
| O=CCCCC=O [glutaraldehyde] |  |  |  |  |  |  | most RBCs were held up at the entrance to the channel, unable to deform | more than 95% | progressively stiffer with decreasing velocity |
